{"source": "patent US20210137992A1", "about": "“HYPOXIA-INDUCIBLE FACTOR-2A AS A TARGET IN PREVENTION/TREATMENT OF PARKINSON'S DISEASE” (QIngdao University, priority 2019, published 2021)", "key": {"HIF-1α [1]": {"system": "HIF-1α", "test": "Western blot of HIF-1α protein expression in primary cultured astrocytes", "type": "cell-based, Wistar suckling rats", "procedure": "(§1) The astrocytes were inoculated into a six-well plate pre-coated with polylysine at a density of 1.5×10^5/ml. In order to detect the activation of HIF-1α and HIF-2α by 6-OHDA and the corresponding protein expression of DMT1 and FPN1, the cells were divided into groups and treated with drugs. After being treated with 10 μM of 6-OHDA for 24 h, the cells were collected to extract the total protein.\n(§2) In order to test the influence of inhibiting the activation of HIF-1α on the protein expression of DMT1 and FPN1 in the astrocytes, the cells were pre-treated with 10 μM of Bay87-2243 for 48 h, and then added with 10 μM of 6-OHDA for co-action for 24 h. Then the total protein was extracted.\n(§3) The activation and inhibition of HIF-1α and HIF-2α by 6-OHDA and the corresponding protein expression of DMT1 and FPN1 were detected by Western blots.\n(§4) After drug treatment of the cells, the medium was completely blotted up, the cells were washed with pre-chilled PBS for three times, and 100 μl of the cell lysis buffer: RIPA lysis buffer (strong) was added to each well, and the cells were lysed on ice for 0.5 h.\n(§5) The concentration of the extracted protein was detected by the BCA protein quantitative kit. The protein was sub-packaged according to 30 μg per serving, brought to the same volume with 0.01M PBS, then added with a 4× loading buffer and mixed well, subjected to a water batch above 95° C. for 5 min to denature the protein, and cryopreserved in the refrigerator at −80° C.\n(§6) The corresponding primary antibodies were diluted with 5% skim milk: HIF-1α was diluted at 1:1000, HIF-2α was diluted at 1:1000, DMT1 was diluted at 1:800, FPN1 was diluted at 1:800, β-actin was diluted at 1:10000, and incubated in the shaker at 4° C. overnight. It was rinsed with the 1×TBST buffer for 3 times, each time for 10 min.\n(§7) The intensity of bands was subjected to density analysis with the Vision Works LS image acquisition and analysis software."}, "DMT1": {"system": "DMT1", "test": "Western blot of DMT1 protein expression in primary cultured astrocytes", "type": "cell-based, Wistar suckling rats", "procedure": "as §1\n(§8) In order to test the influence of inhibiting the activation of HIF-2α on the protein expression of DMT1 and FPN1 in the astrocytes, the cells were pre-treated with 10 μM of the HIF-2α translation inhibitor for 24 h, and then added with 10 μM of 6-OHDA for co-action for 24 h. Then the total protein was extracted.\nas §2, §3, §4, §5, §6, §7"}, "FPN1": {"system": "FPN1", "test": "Western blot of FPN1 protein expression in primary cultured astrocytes", "type": "cell-based, Wistar suckling rats", "procedure": "as §1, §8, §2, §3, §4, §5, §6, §7"}, "HIF-2α [2]": {"system": "HIF-2α", "test": "Western blot of HIF-2α protein expression in primary cultured astrocytes", "type": "cell-based", "procedure": "as §1, §8, §3, §4, §5, §6, §7"}, "[3]": {"system": "primary cultured astrocytes", "test": "Calcein fluorescence ferrous iron influx (transport-in) assay", "type": "cell-based, Wistar suckling mice", "details": "1 mM ferrous iron perfusion", "procedure": "(§9) The primary-cultured astrocytes were plated at a plating density of 5×10^4/well in a 24-well plate with a polylysine-treated cover slip placed in each well. After the astrocytes were cultured for 48 h, the medium was blotted up, and the cells were rinsed gently with the DMEM/F12 basic medium preheated at 37° C. The cells were then treated in groups with 6 wells in each group, and were continually cultured in a 5% CO2 incubator at 37° C. for 24 h. The medium was blotted up. The cells were rinsed once with HBS preheated at 37° C., added with calcein (0.5 μM), placed in an incubator at 37° C. for 0.5 h for loading, then rinsed with HBS for three times, and then detected.\nCalcein-AM was a membrane-permeable non-fluorescent molecule. […] Calcein had high affinity for all of divalent metal ions, and could be combined with various divalent metal ions in the cells and then converted into non-fluorescent substances, which leads to the quenching of the fluorescence. In this experimental system, other divalent metal ions such as Mg^2+ and Ca^2+ were removed, and only a Fe^2+ solution was used for perfusion to ensure that the fluorescence change of intracellular calcein was caused by its binding with Fe^2+. The level of cheatable iron in the cells was estimated by determining the decrease degree of the fluorescence intensity. […]"}, "[4]": {"system": "primary cultured astrocytes", "test": "Calcein fluorescence iron efflux (transport-out) assay with DFO perfusion", "type": "cell-based, Wistar suckling rats", "details": "1 mM DFO perfusion", "procedure": "as §9\nCalcein-AM was a membrane-permeable non-fluorescent molecule. […] Calcein had high affinity for all of divalent metal ions, and could be combined with various divalent metal ions in the cells and then converted into non-fluorescent substances, which leads to the quenching of the fluorescence. […] The level of cheatable iron in the cells was estimated by determining the decrease degree of the fluorescence intensity. The fluorescence intensity of calcein was inversely proportional to the content of free iron in the cells. When the level of iron in the cells was increased, the free iron combined with calcein, the fluorescence was quenched, and thus the fluorescence intensity was decreased, otherwise it was increased. […]"}, "HIF-1α [5]": {"system": "HIF-1α", "test": "Western blot of HIF-1α protein expression in primary cultured VM neurons", "type": "cell-based, Wistar mice", "details": "10 μM 6-OHDA for 24 h, compared to control", "procedure": "(§10) In order to detect the activation of HIF-1α and HIF-2α in the VM neurons by 6-OHDA, the cells were divided into groups and treated with drugs. After being treated with 10 μM of 6-OHDA for 24 h, the cells were collected to extract the total protein.\nas §4, §5, §6, §7"}, "HIF-2α [6]": {"system": "HIF-2α", "test": "Western blot of HIF-2α protein expression in primary cultured VM neurons", "type": "cell-based, Wistar mice", "details": "10 μM 6-OHDA for 24 h, compared to control", "procedure": "as §10, §4, §5, §6, §7"}, "[7]": {"details": "astrocytes treated with 10 μM BAY 87-2243 alone, compared with control group"}, "[8]": {"details": "astrocytes, 10 μM BAY 87-2243 pretreatment 48 h then 10 μM 6-OHDA 24 h, compared to 6-OHDA group"}, "[9]": {"details": "astrocytes treated with 10 μM HIF-2α inhibitor alone, compared to control group"}, "[10]": {"details": "astrocytes, 10 μM HIF-2α inhibitor pretreatment 24 h then 10 μM 6-OHDA 24 h, compared with 6-OHDA group"}, "[11]": {"details": "pretreatment with 10 μM HIF-2α inhibitor for 24 h, 10 μM 6-OHDA"}, "[12]": {"details": "primary cultured astrocytes, 10 μM 6-OHDA for 24 h, compared with control"}, "[13]": {"details": "astrocytes, 10 μM 6-OHDA for 24 h, compared with control group"}}}
{"smiles": "Cc1cc(-c2nc(-c3ccc(OC(F)(F)F)cc3)no2)nn1Cc1ccnc(N2CCN(C3CC3)CC2)c1", "note": "[BAY 87-2243]", "values": [{"measurement": "expression of HIF-1α", "setting": "HIF-1α [1]; [7]", "result": "decreased"}, {"measurement": "expression of HIF-1α", "setting": "HIF-1α [1]; astrocytes, 10 μM BAY 87-2243 pretreatment 48 h then co-treatment with 10 μM 6-OHDA 24 h, compared with 6-OHDA group", "result": "decreased"}, {"measurement": "expression of DMT1", "setting": "DMT1; [7]", "result": "remained unchanged"}, {"measurement": "expression of DMT1", "setting": "DMT1; [8]", "result": "did not change"}, {"measurement": "expression of FPN1", "setting": "FPN1; [7]", "result": "remained unchanged"}, {"measurement": "expression of FPN1", "setting": "FPN1; [8]", "result": "did not change"}]}
{"smiles": "COC(=O)c1sccc1N/N=C(\\C#N)S(C)(=O)=O", "note": "[HIF-2α inhibitor]", "values": [{"measurement": "expression of HIF-2α", "setting": "HIF-2α [2]; astrocytes treated with 10 μM HIF-2α inhibitor alone, compared with control group", "result": "decreased"}, {"measurement": "expression of HIF-2α", "setting": "HIF-2α [2]; astrocytes, 10 μM HIF-2α inhibitor pretreatment 24 h then co-treatment with 10 μM 6-OHDA 24 h, compared with 6-OHDA group", "result": "decreased"}, {"measurement": "expression of DMT1", "setting": "DMT1; [9]", "result": "decreased"}, {"measurement": "expression of DMT1", "setting": "DMT1; [10]", "result": "decreased"}, {"measurement": "expression of FPN1", "setting": "FPN1; [9]", "result": "decreased"}, {"measurement": "expression of FPN1", "setting": "FPN1; [10]", "result": "decreased"}, {"measurement": "effect on 6-OHDA-increased ferrous iron influx (calcein fluorescence)", "setting": "[3]; [11]", "result": "fully blocked"}, {"measurement": "effect on 6-OHDA-caused ferrous iron efflux (calcein fluorescence)", "setting": "[4]; [11]", "result": "fully blocked"}]}
{"smiles": "NCCc1cc(O)c(O)cc1O", "note": "[6-OHDA, 6-hydroxydopamine]", "values": [{"measurement": "expression of HIF-1α", "setting": "HIF-1α [1]; [12]", "result": "increased"}, {"measurement": "expression of HIF-2α", "setting": "HIF-2α [2]; [12]", "result": "increased"}, {"measurement": "protein level of HIF-1α", "setting": "HIF-1α [5]", "result": "remained unchanged"}, {"measurement": "protein level of HIF-2α", "setting": "HIF-2α [6]", "result": "remained unchanged"}, {"measurement": "expression of DMT1", "setting": "DMT1; [13]", "result": "increased"}, {"measurement": "expression of FPN1", "setting": "FPN1; [13]", "result": "increased"}, {"measurement": "ferrous iron influx (calcein fluorescence quenching)", "setting": "[3]; cells treated with 10 μM 6-OHDA, compared with controls", "result": "more rapid fluorescence quenching"}, {"measurement": "iron efflux (calcein fluorescence intensity)", "setting": "[4]; 10 μM 6-OHDA-treated group", "result": "marked increase in fluorescence intensity"}]}
